Structures are written as SMILES. Numbers after ± are expanded uncertainties.

The data set is described as follows: activity coefficient (dimensionless); of the first substance listed, at infinite dilution; xn = mol fraction of the nth substance listed. Particulars: Liquid, Chromatography, x1 = 0.

Consider `COC` [dimethyl ether] + C=CC(C)(C)O, for which the activity coefficient amounted to 0.62 ± 0.04 (250.01 K); 0.67 ± 0.05 (269.96 K); 0.7 ± 0.05 (289.99 K); 0.72 ± 0.05 (309.99 K); 0.74 ± 0.05 (330 K).

For `C/C=C/C` [(E)-2-butene] + C=CC(C)(C)O, the activity coefficient by setting is: (249.98 K) 2.73 ± 0.19; (269.95 K) 2.62 ± 0.18; (289.99 K) 2.51 ± 0.17; (309.99 K) 2.35 ± 0.16; (330 K) 2.2 ± 0.15.

In the case of `CCCC` [butane] + C=C(C)CCO, the activity coefficient was determined as 4.89 ± 0.33 (249.92 K); 4.61 ± 0.31 (270.04 K); 4.41 ± 0.3 (289.99 K); 4.18 ± 0.28 (309.99 K); 3.99 ± 0.27 (330 K).

Turning to `C=CCC` [1-butene] + C=C(C)CCO, the activity coefficient was found to be 3.57 ± 0.24 (249.92 K); 3.47 ± 0.24 (270.04 K); 3.4 ± 0.23 (289.99 K); 3.28 ± 0.22 (309.99 K); 3.13 ± 0.21 (330 K).

For `CC(F)F` [1,1-difluoroethane] + C=CC(C)(C)O, the activity coefficient by setting is: (250 K) 4.68 ± 0.32; (269.96 K) 3.99 ± 0.27; (289.99 K) 3.39 ± 0.23; (309.99 K) 2.89 ± 0.2; (330 K) 2.47 ± 0.17.

Turning to `C=CC` [propene] + C=CC(C)(C)O, the activity coefficient is 2.46 ± 0.17 (249.98 K); 2.38 ± 0.16 (269.95 K); 2.3 ± 0.16 (289.99 K); 2.17 ± 0.15 (309.99 K); 2.05 ± 0.14 (330 K).

Take `C/C=C\C` [(Z)-2-butene] + C=C(C)CCO: the activity coefficient (249.95 K) is 3.26 ± 0.22; the activity coefficient (269.95 K) stood at 3.2 ± 0.22; the activity coefficient (289.9 K) was found to be 3.08 ± 0.21; the activity coefficient (309.99 K) stood at 2.9 ± 0.2; the activity coefficient (330 K) stood at 2.77 ± 0.19.

Consider `C=CC=C` [1,3-butadiene] + C=CC(C)(C)O, for which the activity coefficient is, setting by setting: (249.98 K) 2.43 ± 0.17; (269.95 K) 2.36 ± 0.16; (289.99 K) 2.22 ± 0.15; (309.99 K) 2.05 ± 0.14; (330 K) 1.88 ± 0.13.

Regarding `CC(C)C` [2-methylpropane] + C=CC(C)(C)O, the activity coefficient (249.98 K) was 3.56 ± 0.24; the activity coefficient (269.95 K) worked out at 3.42 ± 0.23; the activity coefficient (289.99 K) came to 3.27 ± 0.22; the activity coefficient (309.99 K) stood at 3.06 ± 0.21; the activity coefficient (330 K) was found to be 2.83 ± 0.19.

Take `COC` [dimethyl ether] + C=C(C)CCO: the activity coefficient came out at 1.28 ± 0.08 (249.95 K); 1.23 ± 0.08 (269.95 K); 1.2 ± 0.08 (289.9 K); 1.17 ± 0.07 (309.99 K); 1.15 ± 0.07 (330 K).

`C=CCC` [1-butene] + C=CC(C)(C)O: the activity coefficient by setting is: (249.98 K) 2.74 ± 0.19; (269.95 K) 2.65 ± 0.18; (289.99 K) 2.52 ± 0.17; (309.99 K) 2.37 ± 0.16; (330 K) 2.2 ± 0.15.

For the compound `C=C(C)C` [2-methylpropene] + C=C(C)CCO, the activity coefficient reads like this: (249.92 K) 3.49 ± 0.24; (270.04 K) 3.41 ± 0.23; (289.99 K) 3.32 ± 0.23; (309.99 K) 3.21 ± 0.22; (330 K) 3.04 ± 0.21.

With `C=CC=C` [1,3-butadiene] + C=C(C)CCO, the activity coefficient is 2.76 ± 0.19 (249.92 K); 2.69 ± 0.18 (270.04 K); 2.65 ± 0.18 (289.99 K); 2.56 ± 0.17 (309.99 K); 2.45 ± 0.17 (330 K).

Regarding `CCC` [propane] + C=CC(C)(C)O, the activity coefficient stood at 3.08 ± 0.21 (249.98 K); 2.97 ± 0.2 (269.95 K); 2.86 ± 0.19 (289.99 K); 2.7 ± 0.18 (309.99 K); 2.54 ± 0.17 (330 K).

For the compound `CCCl` [chloroethane] + C=CC(C)(C)O, the activity coefficient reads like this: (250.01 K) 2.28 ± 0.16; (269.96 K) 2.16 ± 0.15; (289.99 K) 1.96 ± 0.13; (309.99 K) 1.69 ± 0.11; (330 K) 1.56 ± 0.1.

For `CC(F)F` [1,1-difluoroethane] + C=C(C)CCO, the activity coefficient runs as follows: (249.95 K) 4.94 ± 0.34; (269.95 K) 4.53 ± 0.31; (289.9 K) 4.12 ± 0.28; (309.99 K) 3.74 ± 0.25; (330 K) 3.5 ± 0.24.

As for `CC(C)C` [2-methylpropane] + C=C(C)CCO, the activity coefficient came out at 5.27 ± 0.36 (249.92 K); 4.98 ± 0.34 (270.04 K); 4.73 ± 0.32 (289.99 K); 4.54 ± 0.31 (309.99 K); 4.29 ± 0.29 (330 K).

With `CCCl` [chloroethane] + C=C(C)CCO, the activity coefficient (249.94 K) stood at 2.49 ± 0.17; the activity coefficient (269.95 K) turned out to be 2.35 ± 0.16; the activity coefficient (289.9 K) was 2.32 ± 0.16; the activity coefficient (309.99 K) was determined as 2.23 ± 0.15; the activity coefficient (330 K) is 1.99 ± 0.14.

`C=CC` [propene] + C=C(C)CCO: the activity coefficient turned out to be 3.07 ± 0.21 (249.92 K); 3.04 ± 0.21 (270.04 K); 2.99 ± 0.2 (289.99 K); 2.92 ± 0.2 (309.99 K); 2.8 ± 0.19 (330 K).

Regarding `CCCC` [butane] + C=CC(C)(C)O, the activity coefficient (249.98 K) was 3.3 ± 0.22; the activity coefficient (269.95 K) came to 3.22 ± 0.22; the activity coefficient (289.99 K) was 3.08 ± 0.21; the activity coefficient (309.99 K) was 2.87 ± 0.2; the activity coefficient (330 K) was determined as 2.65 ± 0.18.

On to `C=C(C)C` [2-methylpropene] + C=CC(C)(C)O, for which the activity coefficient is, setting by setting: (249.98 K) 2.72 ± 0.19; (269.95 K) 2.61 ± 0.18; (289.99 K) 2.47 ± 0.17; (309.99 K) 2.31 ± 0.16; (330 K) 2.15 ± 0.15.

In the case of `C/C=C\C` [(Z)-2-butene] + C=CC(C)(C)O, the activity coefficient (250 K) came to 2.55 ± 0.17; the activity coefficient (269.96 K) worked out at 2.48 ± 0.17; the activity coefficient (289.99 K) was found to be 2.36 ± 0.16; the activity coefficient (309.99 K) stood at 2.23 ± 0.15; the activity coefficient (330 K) was found to be 2.05 ± 0.14.

Take `C/C=C/C` [(E)-2-butene] + C=C(C)CCO: the activity coefficient (249.92 K) was found to be 3.55 ± 0.24; the activity coefficient (270.04 K) was 3.42 ± 0.23; the activity coefficient (289.99 K) came out at 3.35 ± 0.23; the activity coefficient (309.99 K) was 3.27 ± 0.22; the activity coefficient (330 K) stood at 3.12 ± 0.21.

With `CCC` [propane] + C=C(C)CCO, the activity coefficient is, setting by setting: (249.92 K) 4.36 ± 0.3; (270.04 K) 4.19 ± 0.29; (289.99 K) 4.1 ± 0.28; (309.99 K) 3.86 ± 0.26; (330 K) 3.7 ± 0.25.
